Assay results: patent publication US20260138961A1, “MODULATORS OF MITOCHONDRIAL DNA REPLICATION” (Pretzel Therapeutics, Inc., priority 2022, published 2026)

Target: T1, POLγ W748S + E1143G (Homo sapiens, UniProt P54098, E1143G/W748S)
T1 sequence (P54098 1-1239 W748S/E1143G): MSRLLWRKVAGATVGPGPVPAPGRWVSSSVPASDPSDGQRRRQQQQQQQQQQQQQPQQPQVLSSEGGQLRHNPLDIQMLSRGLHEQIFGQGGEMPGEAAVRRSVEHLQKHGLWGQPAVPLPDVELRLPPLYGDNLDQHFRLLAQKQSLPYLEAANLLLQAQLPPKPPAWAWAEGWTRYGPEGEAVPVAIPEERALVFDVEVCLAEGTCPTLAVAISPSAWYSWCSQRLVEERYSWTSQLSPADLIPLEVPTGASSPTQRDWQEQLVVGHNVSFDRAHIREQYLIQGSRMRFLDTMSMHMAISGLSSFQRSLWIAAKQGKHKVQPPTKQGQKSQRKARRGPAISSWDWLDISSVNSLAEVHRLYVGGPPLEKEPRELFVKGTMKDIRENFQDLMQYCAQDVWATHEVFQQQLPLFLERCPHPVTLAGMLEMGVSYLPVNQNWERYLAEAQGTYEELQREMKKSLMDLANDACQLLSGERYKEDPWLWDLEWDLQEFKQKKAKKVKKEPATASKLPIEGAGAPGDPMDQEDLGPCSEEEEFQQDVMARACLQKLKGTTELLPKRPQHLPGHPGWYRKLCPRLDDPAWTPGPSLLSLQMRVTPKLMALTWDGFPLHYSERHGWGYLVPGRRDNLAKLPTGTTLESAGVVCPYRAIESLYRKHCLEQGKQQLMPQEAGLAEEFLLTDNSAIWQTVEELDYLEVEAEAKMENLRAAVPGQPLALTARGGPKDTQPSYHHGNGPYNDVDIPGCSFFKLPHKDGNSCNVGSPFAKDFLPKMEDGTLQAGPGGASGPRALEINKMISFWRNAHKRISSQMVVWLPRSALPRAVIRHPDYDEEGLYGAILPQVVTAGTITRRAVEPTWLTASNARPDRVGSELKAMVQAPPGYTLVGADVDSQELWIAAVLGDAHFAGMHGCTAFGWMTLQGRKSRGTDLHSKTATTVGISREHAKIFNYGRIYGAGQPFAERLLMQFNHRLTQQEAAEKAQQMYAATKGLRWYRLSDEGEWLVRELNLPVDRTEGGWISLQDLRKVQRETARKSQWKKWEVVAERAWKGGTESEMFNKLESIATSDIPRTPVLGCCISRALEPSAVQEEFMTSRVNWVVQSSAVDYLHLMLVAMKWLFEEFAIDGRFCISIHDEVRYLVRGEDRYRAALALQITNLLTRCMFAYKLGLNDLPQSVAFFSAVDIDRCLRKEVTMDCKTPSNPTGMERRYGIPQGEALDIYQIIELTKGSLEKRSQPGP
T1 sequence (Q9UHN1 1-485 partner): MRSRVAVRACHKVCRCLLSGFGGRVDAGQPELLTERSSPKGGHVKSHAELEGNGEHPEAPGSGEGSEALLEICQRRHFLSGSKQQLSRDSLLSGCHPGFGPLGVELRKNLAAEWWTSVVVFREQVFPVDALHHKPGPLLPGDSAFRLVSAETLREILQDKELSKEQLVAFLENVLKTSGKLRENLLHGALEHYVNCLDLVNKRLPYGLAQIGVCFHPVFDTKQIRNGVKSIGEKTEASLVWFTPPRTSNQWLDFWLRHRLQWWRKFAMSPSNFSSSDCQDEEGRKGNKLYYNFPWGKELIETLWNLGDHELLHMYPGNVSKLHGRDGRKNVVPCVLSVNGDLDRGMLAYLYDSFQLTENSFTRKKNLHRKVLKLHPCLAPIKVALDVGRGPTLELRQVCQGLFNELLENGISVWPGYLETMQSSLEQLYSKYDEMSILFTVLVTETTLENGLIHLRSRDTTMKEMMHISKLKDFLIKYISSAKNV
Experiment: DNA polymerization assay, W748S + E1143G mutant
Assay type: biochemical
Conditions: stimulation of polymerase activity, primed M13mp18 ssDNA, 37° C. 2 hours

SMILES	AC50
Cc1cc(S(=O)(=O)Nc2cccc(-c3ncc(C4CC4)s3)c2)c(C)cc1Cl [Example 76, 4-chloro-N-(3-(5-cyclopropylthiazol-2-yl)phenyl)-2,5-dimethylbenzenesulfonamide]	6000 nM
Cc1csc(-c2ccccc2NS(=O)(=O)c2cc(C)c(Cl)cc2C)n1 [Example 80, 4-chloro-2,5-dimethyl-N-(2-(4-methylthiazol-2-yl)phenyl)benzenesulfonamide]	> 100000 nM
Cc1cc(S(=O)(=O)Nc2csc(-c3ccccc3)n2)c(C)cc1Cl [Example 81, 4-chloro-2,5-dimethyl-N-(2-phenylthiazol-4-yl)benzenesulfonamide]	700 nM
Cc1cc(S(=O)(=O)Nc2cccc(-c3ncc(CN(C)C)s3)c2)c(C)cc1Cl [Example 87, 4-chloro-N-(3-(5-((dimethylamino)methyl)thiazol-2-yl)phenyl)-2,5-dimethylbenzenesulfonamide]	5000 nM
Cc1cc(S(=O)(=O)Nc2cccc(-c3ncc(CO)s3)c2)c(C)cc1Cl [Example 89, 4-chloro-N-(3-(5-(hydroxymethyl)thiazol-2-yl)phenyl)-2,5-dimethylbenzenesulfonamide]	800 nM
Cc1cc(S(=O)(=O)Nc2csc(-c3ccnn3C)n2)c(C)cc1Cl [Example 182, 4-chloro-2,5-dimethyl-N-(2-(1-methyl-1H-pyrazol-5-yl)thiazol-4-yl)benzenesulfonamide]	1000 nM
